Tests used:
SHR/NDmcr-cp rat = test: Renal protecting effect in SHR/NDmcr-cp rat; format: in vivo; settings: 33 weeks aged, 20 weeks administration; TM-2002 50 mg/kg in diet, olmesartane 3 mg/kg oral
Excerpt: Renal protecting effect was observed using SHR/NDmcr-cp (Disease Model Cooperative Research Association) rat, which had been known their high blood pressure, hyperglycemia, hyperlipemia, obesity and hyperinsulinemia and renal function disorder while aging.
SHR/NDmcr-cp rat and Wistar Kyoto rat (Disease Model Cooperative Research Association) of 9 weeks aged were conformed for 3 weeks and measured their body weight and blood collection before administration. One group contain five rats (body weight 440 g±32 g). After division, excipient (negative control), positive control compound and test compound were administered 20 weeks. Carboxymethylcellulose (carboxymethyl cellulose Na/ Wako) solution as excipient and olmesartane, which is one of the angiotensin II receptor antagonist and has renal protective effect, as positive control compound were used to examine the effect of TM-2002 (test compound). The dosage of olmesartane was 3 mg per 1 kg of body weight and that of TM-2002 was 50 mg per 1 kg of body weight. Olmesartane was prepared by suspending or solving the designed amount in 1.0 ml of 0.5% carboxymethylcellulose solution or purified water, and TM-2002 was prepared by mixing the designed amount in 30 g of diet (for one day). Since the increase of body weight of test animals was remarkable, the amount of positive control compound and test compound was modified depending on the result of body weight measuring (every week). […] While administration period, body weight was measured every week, and blood collection, urine collection and blood pressure measuring were done every 2 weeks before 4 weeks aged and every 4 weeks after 5 weeks aged. Blood collection was carried out after warming to 38° C. by warming plate from caudal vein for 800 μl (heparin treatment: the amount of heparin was determined by ratio 15 μl to 1 ml of blood). […] The volume of daily urine was measured when urine was collected. The blood pressure was determined with by the tail-cuff method blood pressure measure (Softron). […]

[1] = test system: ischemia-reperfusion renal failure model rat; test: Renal protective effect on ischemia-reperfusion renal failure model rat; format: in vivo; settings: 50 mg/kg twice daily by sonde, 2 days
Description: This condition model is typical acute renal failure model. To prepare the model, operated on wistar rats (male, body weight 150 g, 6 weeks aged) to remove right kidney, and on the following day, renal artery of remaining left kidney was apply a ligature with clip under general anesthesia. […] After preparing the ischemia-reperfusion model, test compound (TM-2002, 50 mg/kg body weight, twice a daily) was suspended in 0.5% carboxymethylcellulose. The suspension was coercively administered 2 days continuously using sonde, on third day kidney was obtained, and analysed pathologically (renal tubular stromal disorder score). In particular, the kidney was stained by PAS according to conventional method and the renal tubular stromal disorder was estimated for the presence or absence of renal tubular necrosis, renal tubular hypertrophy, renal tubular atrophia, renal tubular basal lamina thickening and cast in the sustained image of kidney. As well as biochemical analysis of blood was carried out (contract clinical analysis organization: SRL).

[2] = test system: middle cerebral artery ischemia-reperfusion model; test: Cerebroprotective action in middle cerebral artery ischemia-reperfusion model; format: in vivo, rat
Description: CD(SD)IGS male rats (Japan Charles river Kabushiki kaisha, Hino farm, room No. 22, specific product) (8 rats per one group) having body weight 270 to 350 g were anesthetized by 2% isoflurane (mixed bas comprising of 70% N2O (laughter gas) and 30% O2) to immobilize, and then the rats were put on warming plate to keep the rectal and brain temperature 37 to 38° C. After that, to observe the stability in the examination, cannula which was made by polyethylene (PE-50, Becton Dickinson) was inserted and left in caudal artery of said animal, and this made blood drawing and blood pressure determining to monitor the biochemical parameter such as blood sugar level, hematocrit, CO2 concentration, oxygen partial pressure, pH, blood pressure and etc. In addition, cerebral blood flow in cortex was determined by laser doppler fluorometry (Neuroscience.inc: OMEGA FLOW (FLO-C1)), putting the detection site directly on cranium on the point left 4 mm from bregma. Left neck of such animal was incised, and from internal and external carotid fork of common carotid artery to upstream of internal carotid, nylon surgical thread (length 16 mm, diameter 0.2 to 0.3 mm, with silicon coating on its tip 3 mm) was passed and left, middle cerebral artery was obstructed for 2 hours. After that, the thread was removed to release the middle cerebral artery, and blood was reperfused for 21 hours. To each animals, 3.0 mg/kg of edaravone (control) and 5.58 mg/kg of TM-2002 were respectively administered twice by cannula which is left in caudal artery 5 minutes and 5 hours after middle cerebral artery occlusion. After said operation, the brain was removed from said animal, and after preparing 7 brain slices with 2 mm thickness, to TTC stain (0.8 g of 2,3,5-triphenyltetrazolium chloride (Sigma) dissolved in 40 ml of saline) were soaked at 37° C. for 15 minutes to stain, the area of infarction and fixed by 10% neutral formalin liquid to prepare specimen. Such specimens were created the image by CCD camera respectively, and analysed according to method of Swanson et al. (J Cereb Blood Flow Metab 10:290-293; 1994). […] Furthermore, function recovering was estimated before and after the operation by rotor rod test that estimates how much they can walk on rotating rotor.

Cc1ncc2c(c1O)C(c1c(C)nn(-c3ccccc3)c1O)OC2 (centres unmarked) [compound 68, 1-(5-hydroxy-3-methyl-1-phenyl-1H-pyrazol-4-yl)-6-methyl-1,3-dihydro-furo[3,4-c]pyridin-7-ol]
blood pressure (SHR/NDmcr-cp rat): without blood pressure lowering | renal function / renal protective effect (SHR/NDmcr-cp rat): excellent renal protective effect | urinary protein (SHR/NDmcr-cp rat): urinary protein is suppressed remarkably | BUN value ([1]; kidney on third day): improved | urinary protein ([1]; kidney on third day): improved | number of glomerular cells ([1]; p<0.0001): significantly suppressed | cerebral infarction nest ([2]; 2 hours occlusion, 21 hours reperfusion, edaravone 3.0 mg/kg, TM-2002 5.58 mg/kg, twice (5 minutes and 5 hours after occlusion), vs excipient): significantly reduced | improvement for nervous condition and recovering the function ([2]; compared to excipient single administration): remarkably shown

Reference: patent publication US7645882B2, “Inhibitor of protein modification products formation” (priority 2003, dated 2010)
